# Data as given in patent US20230203043A1, “NOVEL IMIDAZOPYRAZINE DERIVATIVES” (Hoffmann-La Roche Inc., priority 2020, published 2023).
# Counter-ions that a name gives are not always drawn.
# Tested on: Acinetobacter baumannii ATCC17961
# Assay: Antimicrobial susceptibility testing: 90% growth inhibitory concentration (IC90) determination in Iso-Sensitest broth, OD600 growth
# Type: cell-based
# Conditions: Acinetobacter baumannii, ATCC17961, 16 h, read-out: A. baumannii ATCC 17961 IC90 (uM), strain ATCC 17961, OD600 growth over 16 h
# Method in brief: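 Each strain, at about 5×10^(5) CFU/ml, was incubated with twofold dilutions of compound at 35±2° C for 16 h, and IC90 was calculated from kinetic optical density measured at 600 nm during logarithmic growth.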
row,SMILES,IC90 [µM]
1,"C=CCn1cc(-c2cnc3c(Nc4ccc(C(=O)NCCOCCN)c(CC)c4)nccn23)c(C(F)(F)F)n1 [Example 272, N-[2-(2-aminoethoxy)ethyl]-2-ethyl-4-[[3-[1-prop-2-enyl-3-(trifluoromethyl)pyrazol-4-yl]imidazo[1,2-a]pyrazin-8-yl]amino]benzamide formate]",0.085
2,"CCc1cc(Nc2nccn3c(-c4cn(C5CCC5)nc4C(F)(F)F)cnc23)ccc1C(=O)NCCOCCN [Example 273, N-[2-(2-aminoethoxy)ethyl]-4-[[3-[1-cyclobutyl-3-(trifluoromethyl)pyrazol-4-yl]imidazo[1,2-a]pyrazin-8-yl]amino]-2-ethylbenzamide formate]",0.087
3,"C=C(Cl)Cn1cc(-c2cnc3c(Nc4ccc(C(=O)NCCOCCN)c(CC)c4)nccn23)c(C(F)(F)F)n1 [Example 274, N-[2-(2-aminoethoxy)ethyl]-4-[[3-[1-(2-chloroprop-2-enyl)-3-(trifluoromethyl)pyrazol-4-yl]imidazo[1,2-a]pyrazin-8-yl]amino]-2-ethylbenzamide formate]",0.101
4,"C=C(Cl)C(C)n1cc(-c2cnc3c(Nc4ccc(C(=O)NCCOCCN)c(CC)c4)nccn23)c(C(F)(F)F)n1 (centres unmarked) [Example 275, N-[2-(2-aminoethoxy)ethyl]-4-[[3-[1-(3-chlorobut-3-en-2-yl)-3-(trifluoromethyl)pyrazol-4-yl]imidazo[1,2-a]pyrazin-8-yl]amino]-2-ethylbenzamide formate]",0.169
5,"CCc1cc(Nc2nccn3c(-c4cn(CC(F)(F)F)nc4C(F)(F)F)cnc23)ccc1C(=O)NCCOCCN [Example 276, N-[2-(2-aminoethoxy)ethyl]-2-ethyl-4-[[3-[1-(2,2,2-trifluoroethyl)-3-(trifluoromethyl)pyrazol-4-yl]imidazo[1,2-a]pyrazin-8-yl]amino]benzamide formate]",0.178
6,"CCc1cc(Nc2nccn3c(-c4cn(CC5CC5(F)F)nc4C(F)(F)F)cnc23)ccc1C(=O)NCCOCCN (centres unmarked) [Example 277, N-[2-(2-aminoethoxy)ethyl]-4-[[3-[1-[(2,2-difluorocyclopropyl)methyl]-3-(trifluoromethyl)pyrazol-4-yl]imidazo[1,2-a]pyrazin-8-yl]amino]-2-ethylbenzamide formate]",0.186
7,"CCc1cc(Nc2nccn3c(-c4cn(C(CO)CCl)nc4C(F)(F)F)cnc23)ccc1C(=O)NCCOCCN (centres unmarked) [Example 278, N-[2-(2-aminoethoxy)ethyl]-4-[[3-[1-(1-chloro-3-hydroxypropan-2-yl)-3-(trifluoromethyl)pyrazol-4-yl]imidazo[1,2-a]pyrazin-8-yl]amino]-2-ethylbenzamide formate]",0.332
8,"CCc1cc(Nc2nccn3c(-c4cn(CC(C)(CO)CCl)nc4C(F)(F)F)cnc23)ccc1C(=O)NCCOCCN (centres unmarked) [Example 279, N-[2-(2-aminoethoxy)ethyl]-4-[[3-[1-[2-(chloromethyl)-3-hydroxy-2-methylpropyl]-3-(trifluoromethyl)pyrazol-4-yl]imidazo[1,2-a]pyrazin-8-yl]amino]-2-ethylbenzamide formate]",0.664
9,"NC1CCN(C(=O)N2CCN(C(=O)c3ccc(Nc4nccn5c(-c6c[nH]nc6C(F)(F)F)cnc45)cc3Cl)CC2)CC1 [Example 285, [4-(4-aminopiperidine-1-carbonyl)piperazin-1-yl]-[2-chloro-4-[[3-[3-(trifluoromethyl)-1H-pyrazol-4-yl]imidazo[1,2-a]pyrazin-8-yl]amino]phenyl] methanone formate]",0.185
10,"N#CCn1cc(-c2cnc3c(Nc4ccc(C(=O)N5CCN(C(=O)CCN)CC5)c(Cl)c4)nccn23)c(C(F)(F)F)n1 [Example 286, 2-[4-[8-[4-[4-(3-aminopropanoyl)piperazine-1-carbonyl]-3-chloroanilino]imidazo[1,2-a]pyrazin-3-yl]-3-(trifluoromethyl)pyrazol-1-yl]acetonitrile formate]",0.226
11,"N#CCn1cc(-c2cnc3c(Nc4ccc(C(=O)N5CCN(C(=O)N[C@@H]6CCNC6)CC5)c(Cl)c4)nccn23)c(C(F)(F)F)n1 [Example 288, 4-[2-chloro-4-[[3-[1-(cyanomethyl)-3-(trifluoromethyl)pyrazol-4-yl]imidazo[1,2-a]pyrazin-8-yl]amino]benzoyl]-N-[(3R)-pyrrolidin-3-yl]piperazine-1-carboxamide formate]",0.233
12,"COCCn1cc(-c2cnc3c(Nc4ccc(C(=O)N5CCN(C(=O)N[C@H]6CCNC6)CC5)c(Cl)c4)nccn23)c(C(F)(F)F)n1 [Example 293, 4-[2-chloro-4-[[3-[1-(2-methoxyethyl)-3-(trifluoromethyl)pyrazol-4-yl]imidazo[1,2-a]pyrazin-8-yl]amino]benzoyl]-N-[(3S)-pyrrolidin-3-yl]piperazine-1-carboxamide formate]",0.429
13,"COCCn1cc(-c2cnc3c(Nc4ccc(C(=O)N5CCN(C(=O)CCN)CC5)c(Cl)c4)nccn23)c(C(F)(F)F)n1 [Example 294, 3-amino-1-[4-[2-chloro-4-[[3-[1-(2-methoxyethyl)-3-(trifluoromethyl)pyrazol-4-yl]imidazo[1,2-a]pyrazin-8-yl]amino]benzoyl]piperazin-1-yl]propan-1-one formate]",0.457
14,"N[C@@H]1CN[C@H](C(=O)N2CCN(C(=O)c3ccc(Nc4nccn5c(-c6c[nH]nc6C(F)(F)F)cnc45)cc3Cl)CC2)C1 [Example 295, [4-[(2S,4S)-4-aminopyrrolidine-2-carbonyl]piperazin-1-yl]-[2-chloro-4-[[3-[3-(trifluoromethyl)-1H-pyrazol-4-yl]imidazo[1,2-a]pyrazin-8-yl]amino]phenyl] methanone formate]",0.473

# Same assay, conditions: Acinetobacter baumannii, ATCC17961, 16 h, strain ATCC 17961, OD600 growth over 16 h, read-out: A. baumannii ATCC 17961 IC90
row,SMILES,IC90 [µM]
1,"CCc1cc(Nc2nccn3c(-c4c[nH]nc4C(F)(F)F)cnc23)ccc1C(=O)NCCCNCCCCNCCCN [Example 270, N-[3-[4-(3-aminopropylamino)butylamino]propyl]-2-ethyl-4-[[3-[3-(trifluoromethyl)-1H-pyrazol-4-yl]imidazo[1,2-a]pyrazin-8-yl]amino]benzamide]",2.66
2,"CCc1cc(Nc2nccn3c(-c4cn(CC(=O)O)nc4C(F)(F)F)cnc23)ccc1C(=O)NCCOCCN [Example 271, 2-[4-[8-[4-[2-(2-aminoethoxy)ethylcarbamoyl]-3-ethylanilino]imidazo [1,2-a]pyrazin-3-yl]-3-(trifluoromethyl)pyrazol-1-yl]acetic acid]",3.07
3,"CCNC(=O)c1ccc(Nc2nccn3c(-c4c[nH]nc4C(F)(F)F)cnc23)cc1CC [Example 280, N,2-diethyl-4-[[3-[3-(trifluoromethyl)-1H-pyrazol-4-yl]imidazo[1,2-a]pyrazin-8-yl]amino]benzamide]",0.517
4,"CNC(=O)c1ccc(Nc2nccn3c(-c4cn(Cc5ccncn5)nc4C(F)(F)F)cnc23)cc1Cl [Example 281, 2-chloro-N-methyl-4-[[3-[1-(pyrimidin-4-ylmethyl)-3-(trifluoromethyl)pyrazol-4-yl]imidazo[1,2-a]pyrazin-8-yl]amino]benzamide]",0.345
5,"CCc1cc(Nc2nccn3c(-c4cn(Cc5ccncn5)nc4C(F)(F)F)cnc23)ccc1C(=O)NC [Example 282, 2-ethyl-N-methyl-4-[[3-[1-(pyrimidin-4-ylmethyl)-3-(trifluoromethyl)pyrazol-4-yl]imidazo[1,2-a]pyrazin-8-yl]amino]benzamide]",0.701
6,"CCc1cc(Nc2nccn3c(-c4cn(CCN)nc4C(F)(F)F)cnc23)ccc1C(=O)NC [Example 283, 4-[[3-[1-(2-aminoethyl)-3-(trifluoromethyl)pyrazol-4-yl]imidazo[1,2-a]pyrazin-8-yl]amino]-2-ethyl-N-methylbenzamide]",1.56
7,"CNC(=O)c1ccc(Nc2nccn3c(-c4cn(Cc5cc[nH]n5)nc4C(F)(F)F)cnc23)cc1Cl [Example 284, 2-chloro-N-methyl-4-[[3-[1-(1H-pyrazol-3-ylmethyl)-3-(trifluoromethyl)pyrazol-4-yl]imidazo[1,2-a]pyrazin-8-yl]amino]benzamide]",0.177

# Same assay, conditions: strain ATCC 17961, OD600 growth over 16 h, read-out: A. baumannii ATCC 17961 IC90
row,SMILES,IC90 [µM]
1,"NC1CCC(NC(=O)N2CCN(C(=O)c3ccc(Nc4nccn5c(-c6c[nH]nc6C(F)(F)F)cnc45)cc3Cl)CC2)CC1 (centres unmarked) [Example 287, N-(4-aminocyclohexyl)-4-[2-chloro-4-[[3-[3-(trifluoromethyl)-1H-pyrazol-4-yl]imidazo[1,2-a]pyrazin-8-yl]amino]benzoyl] piperazine-1-carboxamide formate]",0.23
2,"NC1CC(NC(=O)N2CCN(C(=O)c3ccc(Nc4nccn5c(-c6c[nH]nc6C(F)(F)F)cnc45)cc3Cl)CC2)C1 (centres unmarked) [Example 289, N-(3-aminocyclobutyl)-4-[2-chloro-4-[[3-[3-(trifluoromethyl)-1H-pyrazol-4-yl]imidazo[1,2-a]pyrazin-8-yl]amino]benzoyl] piperazine-1-carboxamide formate]",0.234
3,"COCCn1cc(-c2cnc3c(Nc4ccc(C(=O)N5CCN(C(=O)NCCN)CC5)c(Cl)c4)nccn23)c(C(F)(F)F)n1 [Example 290, N-(2-aminoethyl)-4-[2-chloro-4-[[3-[1-(2-methoxyethyl)-3-(trifluoromethyl)pyrazol-4-yl]imidazo[1,2-a]pyrazin-8-yl]amino]benzoyl] piperazine-1-carboxamide formate]",0.33
4,"NC1CCC(NC(=O)N2CCN(C(=O)c3ccc(Nc4nccn5c(-c6c[nH]nc6C(F)(F)F)cnc45)cc3Cl)CC2)CC1 (centres unmarked) [Example 291, N-(4-aminocyclohexyl)-4-[2-chloro-4-[[3-[3-(trifluoromethyl)-1H-pyrazol-4-yl]imidazo[1,2-a]pyrazin-8-yl]amino]benzoyl] piperazine-1-carboxamide formate]",0.332
5,"N[C@H]1CC[C@H](NC(=O)N2CCN(C(=O)c3ccc(Nc4nccn5c(-c6c[nH]nc6C(F)(F)F)cnc45)cc3Cl)CC2)C1 [Example 292, N-[(1S,3S)-3-aminocyclopentyl]-4-[2-chloro-4-[[3-[3-(trifluoromethyl)-1H-pyrazol-4-yl]imidazo[1,2-a]pyrazin-8-yl]amino]benzoyl] piperazine-1-carboxamide formate]",0.354
